The text below walks through data of US20200207726A1, “INDOLINYL SULFONAMIDE AND RELATED COMPOUNDS FOR USE AS AGONISTS OF RORY AND THE TREATMENT OF DISEASE” (Lycera Corporation, priority 2017, published 2020).

In assay [1] the target is T1, Gal4-RORγ-LBD (Homo sapiens, UniProt P51449).
T1 construct: expressed in transfected cells; host or cells: HEK-293 cells, pcDNA3.1neo plasmid
T1 sequence (P51449 269-508 limits assumed): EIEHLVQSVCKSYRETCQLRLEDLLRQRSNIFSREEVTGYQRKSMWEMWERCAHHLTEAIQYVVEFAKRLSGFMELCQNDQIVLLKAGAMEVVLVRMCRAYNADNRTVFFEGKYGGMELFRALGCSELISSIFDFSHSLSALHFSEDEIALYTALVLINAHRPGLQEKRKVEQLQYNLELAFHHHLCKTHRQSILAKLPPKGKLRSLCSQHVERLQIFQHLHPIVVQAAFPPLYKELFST
Put plainly: Gal4-RORγ Luciferase Reporter Assay in HEK-293T Cells. The note with it: for EC50: HEK-293 cells, with 2 μM ursolic acid, overnight incubation; for Gal4-RORγ Assay Max Response: upper plateau of 4-parameter fit, luciferase signal in absence of ursolic acid or test compound defined at 100. Format: cell-based. The method, then: In the following protocol, HEK-293 cells were transfected with a construct comprising the Gal4 DNA binding domain fused to the ligand binding domain of RORγ (Gal4-RORγ-LBD) in a pcDNA3.1neo plasmid, and also with a reporter construct comprising pGL4.31 Gal4-luciferase (Promega). Control cells were prepared similarly using empty pcDNA3.1neo and pGL4.31 vectors.
Trans-IT reagent (Mirus, 60 μL) at room temperature was added drop wise to OptiMEM (Invitrogen, 1.5 ml). This reagent mixture was mixed by inversion then incubated for 5 to 30 minutes at room temperature. It then was added to a solution of both expression vectors (5 μg each), mixed, and incubated at room temperature for about 20 minutes. HEK-293 cells were harvested from incubation flasks by removing the media, treating with TrypLE Express (Invitrogen), and incubating until the cells detached from the bottom of the flask (approximately 2-5 minutes). 10 Million cells were collected by centrifugation and re-suspended in 10 mL of Dulbecco's Modified Eagle Medium, High Glucose (DMEM, Invitrogen) containing 10% Fetal Bovine Serum and 100 IU each of penicillin and streptomycin. The re-suspended cells and the transfection mixture were added to a T75 flask, mixed and incubated overnight at 37° C. and 5% CO2.
The cells were harvested as described above, counted, and centrifuged to obtain the desired number of cells, then re-suspended in complete growth media at 0.75×10^6 cells/mL. The RORγ antagonist, ursolic acid, was added to the cells at a final concentration of 2 μM. Cells were plated at 20 μL of cell suspension/well (10,000-15,000 cells/well) in white tissue culture treated 384 well plates. Test compounds were dissolved at 10 mM in DMSO then diluted into complete growth medium to 5× the final intended test concentration. These drug stock solutions, 5 μL/well were added to the tissue culture plate. The final DMSO concentration was 0.2%. The plates were briefly centrifuged then incubated overnight at 37° C. and 5% CO2. To conduct the assay, the tissue culture plates were allowed to equilibrate to room temperature and One-Glo luciferase reagent (Promega, 25 μL/well) was added. The plates were briefly centrifuged then incubated at room temperature for 10 minutes. The luciferase intensity was read on an Envision plate reader (Perkin Elmer). RORγ activity was determined relative to controls and plotted as a function of test compound concentration using PRISM (GraphPad) to determine a 50% effective concentration (EC50). The luciferase signal in the absence of ursolic acid or test compound is defined at 100. The Max Response is the upper plateau in the signal as determined by line-fit using a 4-parameter logistic model in PRISM (GraphPad).
On the technique in general: Reporter assays use an easily measured gene product as a stand-in for the process of interest.

Assay [2] addresses T2, RORγ-LBD (Homo sapiens, UniProt P51449).
T2 construct: made in house; host or cells: SF9 cells, baculovirus expression system (lysate used)
T2 sequence (P51449 269-508 limits assumed): T1 sequence (P51449 269-508 limits assumed)
The assay is described as follows: RORγ-Ligand Binding Domain (LBD) TR-FRET Assay. In kind it is biochemical. The note with it: for TR-FRET Assay Max Response: upper plateau of 4-parameter fit, signal in absence of ursolic acid or test compound set as 100; for EC50: with 2 μM ursolic acid (RORγ antagonist), highest test concentration 10 μM. As for the experimental part: HIS-tagged RORγ-LBD protein was expressed in SF9 cells using a baculovirus expression system. The lysate was diluted in assay buffer (50 mM Tris pH 7.0, 50 mM KCl, 1 mM EDTA, 0.1 mM DTT, 0.01% BSA) to obtain RORγ-LBD final concentration of −3 nM in a 384-well assay plate (need to titrate for each batch of protein).
A stock of biotinylated-LXXLL peptide from coactivator SRC1 (Biotin-[…]) was prepared in assay buffer and added to each well (200 nM final concentration). A solution of Europium tagged anti-HIS antibody (0.6 nM final concentration) and APC-conjugated streptavidin (30 nM final concentration) were also added to each well. RORγ antagonist ursolic acid was also included at a final concentration of 2 μM. Compounds were diluted in DMSO and further diluted in assay buffer with a final DMSO concentration at 1%. The highest concentration of test compound analyzed was 10 μM.
The final assay mixture was incubated overnight at 4° C. or 2 hours at room temperature, and the fluorescence signal was measured on an Envision plate reader: (Excitation filter=340 nm; APC emission=665 nm; Europium emission=615 nm; dichroic mirror=D400/D630; delay time=100 μs, integration time=200 μs). 50% Effective concentration (EC50) values for test compounds were calculated from the quotient of the fluorescence signal at 665 nm divided by the fluorescence signal at 615 nm. The quotient of the fluorescence signals in the absence of ursolic acid or test compound is set as 100. Max Response is defined as the upper plateau in the signal as determined by line-fit using a 4-parameter logistic model in PRISM (GraphPad).
(In general: Time-resolved FRET reads energy transfer from a long-lived donor to a nearby acceptor.)

What is called EC50 is the concentration at which the effect is half-maximal. Read a low EC50 as higher potency in that assay. With `O=S(=O)(c1cccc(C(F)(F)F)c1)c1c[nH]c2ccc(-c3cc(F)ccc3F)cc12` [Example 4, 5-(2,5-difluorophenyl)-3-((3-(trifluoromethyl)phenyl)sulfonyl)-1H-indole], in assay [1], the EC50 was above 10 µM and the “Gal4-RORγ Assay Max Response” value is listed as “* (a value in the range of 25 to 90)”.

With `COC(=O)CCC1Cc2ccc(-c3cc(F)ccc3F)cc2N1S(=O)(=O)c1cccc(C(F)(F)F)c1` (stereo not drawn) [Example 5, methyl 3-(6-(2,5-difluorophenyl)-1-((3-(trifluoromethyl)phenyl)sulfonyl)indolin-2-yl)propanoate], in assay [1], the concentration for a half-maximal effect (EC50) was below 0.5 µM and the “Gal4-RORγ Assay Max Response” value is “** (a value in the range of greater than 90 to 150)”. In assay [2], the “TR-FRET Assay Max Response” value is listed as “*** (a value in the range of greater than 150 to 200)” and the EC50 was below 0.5 µM.

Consider `O=C(O)CCc1cc2ccc(-c3cc(F)ccc3F)cc2n1S(=O)(=O)c1cccc(C(F)(F)F)c1` [Example 8, 3-(6-(2,5-difluorophenyl)-1-((3-(trifluoromethyl)phenyl)sulfonyl)-1H-indol-2-yl)propanoic acid], for which, in assay [1], the EC50 fell in the range of 0.5 to 5 µM and the “Gal4-RORγ Assay Max Response” value was “** (a value in the range of greater than 90 to 150)”. Moreover, in assay [2], the “TR-FRET Assay Max Response” value was “*** (a value in the range of greater than 150 to 200)” and the EC50 fell in the range of 0.5 to 5 µM.

On to `CCOC(=O)CC1CN(S(=O)(=O)c2cccc(C(F)(F)F)c2)c2cc(-c3cc(F)ccc3F)ccc21` (stereo not drawn) [Example 2, ethyl 2-(6-(2,5-difluorophenyl)-1-((3-(trifluoromethyl)phenyl)sulfonyl)indolin-3-yl)acetate], for which, in assay [1], the EC50 was below 0.5 µM and the “Gal4-RORγ Assay Max Response” value is given as “** (a value in the range of greater than 90 to 150)”. For the same compound, in assay [2], the “TR-FRET Assay Max Response” value is “*** (a value in the range of greater than 150 to 200)” and the EC50 was below 0.5 µM.

`O=C(O)CC1CN(S(=O)(=O)c2cccc(C(F)(F)F)c2)c2cc(-c3cc(F)ccc3F)ccc21` (stereo not drawn) [Example 3, 2-(6-(2,5-difluorophenyl)-1-((3-(trifluoromethyl)phenyl)sulfonyl)indolin-3-yl)acetic acid]: in assay [1], the EC50 lay in the range of 5 to 10 µM and the “Gal4-RORγ Assay Max Response” value is reported as “** (a value in the range of greater than 90 to 150)”. Also, in assay [2], the “TR-FRET Assay Max Response” value is on record as “** (a value in the range of greater than 90 to 150)” and the EC50 is below 0.5 µM.

As to `O=C(O)CCC1Cc2ccc(-c3cc(F)ccc3F)cc2N1S(=O)(=O)c1cccc(C(F)(F)F)c1` (stereo not drawn) [Example 6, 3-(6-(2,5-difluorophenyl)-1-((3-(trifluoromethyl)phenyl)sulfonyl)indolin-2-yl)propanoic acid], in assay [1], the EC50 is 0.5 to 5 µM and the “Gal4-RORγ Assay Max Response” value is reported as “*** (a value in the range of greater than 150 to 200)”. Moreover, in assay [2], the “TR-FRET Assay Max Response” value is on record as “*** (a value in the range of greater than 150 to 200)” and the EC50 was below 0.5 µM.

On to `COC(=O)CCc1cc2ccc(-c3cc(F)ccc3F)cc2n1S(=O)(=O)c1cccc(C(F)(F)F)c1` [Example 7, methyl 3-(6-(2,5-difluorophenyl)-1-((3-(trifluoromethyl)phenyl)sulfonyl)-1H-indol-2-yl)propanoate], for which, in assay [1], the EC50 lay within 0.5 to 5 µM and the “Gal4-RORγ Assay Max Response” value is given as “* (a value in the range of 25 to 90)”. In assay [2], the “TR-FRET Assay Max Response” value is “*** (a value in the range of greater than 150 to 200)” and the EC50 is 0.5 to 5 µM.

As for `O=S(=O)(c1cccc(C(F)(F)F)c1)N1COc2ccc(-c3cc(F)ccc3F)cc21` [Example 1, 5-(2,5-difluorophenyl)-3-((3-(trifluoromethyl)phenyl)sulfonyl)-2,3-dihydrobenzo[d]oxazole], in assay [1], the EC50 was below 0.5 µM and the “Gal4-RORγ Assay Max Response” value was “** (a value in the range of greater than 90 to 150)”. In addition, in assay [2], the “TR-FRET Assay Max Response” value was “*** (a value in the range of greater than 150 to 200)” and the EC50 was below 0.5 µM.
